# Read-outs that look alike come from different tables or passages of the source.
# Target: human EP4 receptor (Homo sapiens (Human), UniProt P35408)
# Experiment: hEP4 antagonism test (cAMP HTRF, PGE2-stimulated hEP4-expressing cells)
# Format: cell-based
# Excerpt: The antagonistic action can be determined by an antagonism assay (see Example 3.2.1 of the biological examples).
# 3. Detection of the Antagonism of the Human Prostaglandin E2 (Subtype ER4) Receptor Signal
# Detection of the Antagonization of the hEP4 Signal
# Binding of the agonist prostaglandin E2 (PGE2) to the EP4 subtype of the human hPGE2-R (hEP4-R) induces activation of membrane-bound adenylate cyclases and thus the formation of cAMP. In the presence of the phosphodiesterase inhibitor IBMX, this cAMP accumulates intracellularly and is, after cell lysis, employed in a competitive detection method. In this method, it competes with a fluorescently labelled cAMP (cAMP-d2) for binding to an anti-cAMP antibody labelled with an Eu cryptate. In the absence of cellular cAMP, a complex between the Eu-cryptate-labelled anti-cAMP antibody and the cAMP-d2 molecule is formed which, after excitation at 337 nm, allows a FRET-based (FRET=fluorescence resonance energy transfer) enery transfer to the cAMP-d2 tracer and results in a long-lasting fluorescence signal (emission at 665 and 620 nm). This signal is time-resolved, i.e. measured in a suitable measuring device once the background fluorescence has subsided (time resolved; TR-FRET). Additionally, well-ratio determination (emission 665 nm/emission 620 nm*10 000) allows variations in the individual measurements in the added amounts of detection reagents to be normalized.
# Administration of prostglandin E2 and increase of intracellular cAMP reduces the FRET signal which increases again if the substance is antagonistically active.
# 3.2.1 Test for Antagonism (Figures Per Well of a 384-Well Plate):
# 4 μl of a suspension of hEP4-expressing cells (2500 cells/well) already comprising the cAMP-D2 tracer are added to the substance solutions (50 nl; 100% DMSO) initially charged in a test plate. After 20 minutes of pre-incubation at room temperature, 2 μl of a 3×PGE2 solution are added and the mixture is incubated in the presence of an EC80 concentration of the agonist (0.4 nM) for a further 60 min at room temperature (volume: ˜6 μl), and the whole reaction is then stopped by addition of 2 μl of lysis buffer (volume: ˜8 μl). After a further 20 min at room temperature, the cell lysate is measured in accordance with the instructions of the manufacturer in a measuring instrument suitable for TR-FRET (compare cAMP HTRF assay kit: Cisbio International 62AM6PEJ high range)
# [1] = hEP4-expressing cells, PGE2 at EC80 (0.4 nM), cAMP TR-FRET, read-out: hEP4 antagonization IC50
# Sequence of human EP4 receptor (P35408 whole entry): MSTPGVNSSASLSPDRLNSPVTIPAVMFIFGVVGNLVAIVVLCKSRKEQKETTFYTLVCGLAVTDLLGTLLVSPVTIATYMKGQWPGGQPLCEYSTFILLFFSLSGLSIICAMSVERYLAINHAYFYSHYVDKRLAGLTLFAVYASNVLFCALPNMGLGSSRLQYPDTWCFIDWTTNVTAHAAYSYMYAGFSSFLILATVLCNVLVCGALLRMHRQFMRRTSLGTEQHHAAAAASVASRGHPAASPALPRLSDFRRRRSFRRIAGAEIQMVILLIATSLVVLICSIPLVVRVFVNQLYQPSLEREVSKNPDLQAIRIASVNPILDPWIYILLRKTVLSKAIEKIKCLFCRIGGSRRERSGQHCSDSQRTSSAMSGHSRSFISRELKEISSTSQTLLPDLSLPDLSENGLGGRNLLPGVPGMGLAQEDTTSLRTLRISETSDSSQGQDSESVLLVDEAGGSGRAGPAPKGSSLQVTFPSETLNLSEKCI
IC50 [1],"IC50 (PGE2-induced stimulation of cAMP production, cells expressing the EP4 receptor, read-out: inhibition of PGE2-induced cAMP production in cells expressing the EP4 receptor, IC50)",SMILES
62 nM,–,"CCOC(=O)c1ccc2c(c1)nc(-c1ccc3c(c1)c1cc(C)cc(F)c1n3CC)n2CCOC [Example 9, Ethyl 2-(9-ethyl-8-fluoro-6-methyl-9H-carbazol-3-yl)-1-(2-methoxyethyl)-1H-benzimidazole-5-carboxylate]"
47 nM,–,"CCn1c2ccc(-c3nc4c(C)c(C(=O)OC)ccc4n3CCOC)cc2c2cc(C)cc(Cl)c21 [Example 11, Methyl 2-(8-chloro-9-ethyl-6-methyl-9H-carbazol-3-yl)-1-(2-methoxyethyl)-4-methyl-1H-benzimidazole-5-carboxylate]"
1.5 nM,~1.5 nM,"CCn1c2ccc(-c3nc4cc(C(=O)O)ccc4n3CCOC)cc2c2cc(C)cc(F)c21 [Example 10, 2-(9-Ethyl-8-fluoro-6-methyl-9H-carbazol-3-yl)-1-(2-methoxyethyl)-1H-benzimidazole-5-carboxylic Acid]"
2.8 nM,–,"CCn1c2ccc(-c3nc4c(C)c(C(=O)O)ccc4n3CCOC)cc2c2cc(C)cc(Cl)c21 [Example 12, 2-(8-Chloro-9-ethyl-6-methyl-9H-carbazol-3-yl)-1-(2-methoxyethyl)-4-methyl-1H-benzimidazole-5-carboxylic Acid]"

# Second part, the compound before the results:
SMILES,IC50 [1],"IC50 (PGE2-induced stimulation of cAMP production, cells expressing the EP4 receptor, read-out: inhibition of PGE2-induced cAMP production in cells expressing the EP4 receptor, IC50)"
"CCn1c2ccc(-c3nc4c(F)c(C(=O)O)ccc4n3CCOC)cc2c2cc(C)cc(F)c21 [Example 8, 2-(9-Ethyl-8-fluoro-6-methyl-9H-carbazol-3-yl)-4-fluoro-1-(2-methoxyethyl)-1H-benzimidazole-5-carboxylic Acid]",1.9 nM,–
"CCn1c2ccc(-c3nc4c(C)c(C(=O)O)ccc4n3CCOC)cc2c2cc(C)cc(F)c21 [Example 4, 2-(9-Ethyl-8-fluoro-6-methyl-9H-carbazol-3-yl)-1-(2-methoxyethyl)-4-methyl-1H-benzimidazole-5-carboxylic Acid]",2.4 nM,–
"CCn1c2ccc(Br)cc2c2cc(-c3nc4c(C)c(C(=O)O)ccc4n3CCOC)ccc21 [Example 2, 2-(6-Bromo-9-ethyl-9H-carbazol-3-yl)-1-(2-methoxyethyl)-4-methyl-1H-benzimidazole-5-carboxylic Acid]",11 nM,–
"CCn1c2ccc(-c3nc4c(C)c(C(=O)OC)ccc4n3CCOC)cc2c2cc(C)cc(F)c21 [Example 3, Methyl 2-(9-ethyl-8-fluoro-6-methyl-9H-carbazol-3-yl)-1-(2-methoxyethyl)-4-methyl-1H-benzimidazole-5-carboxylate]",40 nM,–
"CCn1c2ccc(-c3nc4c(F)c(C(=O)O)ccc4n3CCOC)cc2c2cc(F)cc(C)c21 [Example 7, 2-(9-Ethyl-6-fluoro-8-methyl-9H-carbazol-3-yl)-4-fluoro-1-(2-methoxyethyl)-1H-benzimidazole-5-carboxylic Acid]",2.4 nM,–
"CCn1c2ccc(Br)cc2c2cc(-c3nc4c(C)c(C(=O)OC)ccc4n3CCOC)ccc21 [Example 1, Methyl 2-(6-bromo-9-ethyl-9H-carbazol-3-yl)-1-(2-methoxyethyl)-4-methyl-1H-benzimidazole-5-carboxylate]",32 nM,–
"CCn1c2ccc(-c3nc4c(C)c(C(=O)O)ccc4n3CCOC)cc2c2cc(F)cc(C)c21 [Example 6, 2-(9-Ethyl-6-fluoro-8-methyl-9H-carbazol-3-yl)-1-(2-methoxyethyl)-4-methyl-1H-benzimidazole-5-carboxylic Acid]",2 nM,–

# Reference: patent US10730856B2, “Benzimidazole derivatives as EP4 ligands” (BAYER PHARMA AKTIENGESELLSCHAFT, priority 2013, dated 2020)
